For 42 compounds, IC50 and inhibition results are on record in ChEMBL document CHEMBL5614460, “Discovery of novel substituted pyridine carboxamide derivatives as potent allosteric SHP2 inhibitors” (Eur J Med Chem, 2024).

One assay deals with T1, Tyrosine-protein phosphatase non-receptor type 11 (Homo sapiens, UniProt Q06124).
T1 sequence (Q06124 whole entry): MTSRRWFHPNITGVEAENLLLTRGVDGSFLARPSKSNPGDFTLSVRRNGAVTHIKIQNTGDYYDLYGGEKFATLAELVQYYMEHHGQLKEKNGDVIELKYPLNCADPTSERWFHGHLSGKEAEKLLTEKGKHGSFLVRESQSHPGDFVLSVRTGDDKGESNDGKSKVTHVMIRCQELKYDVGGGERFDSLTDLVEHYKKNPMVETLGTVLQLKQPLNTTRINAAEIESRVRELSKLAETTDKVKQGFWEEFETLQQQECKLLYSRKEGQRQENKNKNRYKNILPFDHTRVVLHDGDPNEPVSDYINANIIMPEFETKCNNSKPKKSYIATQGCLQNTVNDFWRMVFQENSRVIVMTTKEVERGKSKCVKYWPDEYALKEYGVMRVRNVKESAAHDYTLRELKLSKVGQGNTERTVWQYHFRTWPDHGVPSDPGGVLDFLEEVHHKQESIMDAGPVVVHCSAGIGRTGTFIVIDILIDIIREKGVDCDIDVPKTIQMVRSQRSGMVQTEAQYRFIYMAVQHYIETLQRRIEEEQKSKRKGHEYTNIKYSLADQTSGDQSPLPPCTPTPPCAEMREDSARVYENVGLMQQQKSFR
Description: Allosteric inhibition of N-terminal His-tagged human recombinant SHP2 extracted from Escherichia coli using DiFMUP as substrate preincubated with compound for 60 mins followed by substrate addition and measured after 30 mins by fluorescence based microplate reader analysis.
Details: not given
Consider `CC1(N)CCN(c2cnc(Sc3cccc(NC(=O)/C=C/c4ccccc4)c3Cl)cn2)CC1`, for which the IC50 was determined as 39.6 nM.
Consider `CC1(N)CCN(c2cnc(Sc3cccc(NC(=O)c4cccnc4O)c3Cl)cn2)CC1`, for which the IC50 was found to be 11.3 nM.
For `CC1(N)CCN(c2cnc(Sc3cccc(NC(=O)c4ncccc4Br)c3Cl)cn2)CC1`, the IC50 worked out at 52.8 nM.
`Cc1cccnc1C(=O)Nc1cccc(Sc2cnc(N3CCC(C)(N)CC3)cn2)c1Cl`: the IC50 was found to be 89.1 nM.
On the same count and under the same terms, with `CC1(N)CCN(c2cnc(Sc3cccc(NC(=O)c4cnccc4O)c3Cl)cn2)CC1` the figure was 6.4 nM; with `Nc1nc(N2CCN(C(=O)C3(N)CCCC3)CC2)cnc1Sc1ccnc(N)c1Cl`, 530 nM; with `CC1(N)CCN(c2cnc(Sc3cccc(NC(=O)c4cnccn4)c3Cl)cn2)CC1`, 77 nM.
As for `CC1(N)CCN(c2cnc(Sc3cccc(NC(=O)c4cccs4)c3Cl)cn2)CC1`, the IC50 was determined as 119 nM.
Still for that read-out and setting: with `C[C@@H]1OCC2(CCN(c3cnc(Sc4cccc(NC(=O)c5ncccc5O)c4Cl)cn3)CC2)[C@@H]1N` the figure was 0.59 nM.
As to `CC1(N)CCN(c2cnc(Sc3cccc(NC(=O)c4ncccc4C(F)(F)F)c3Cl)cn2)CC1`, the IC50 is 88.6 nM.
Turning to `CC1(N)CCN(c2cnc(Sc3cccc(NC(=O)c4ccncc4Cl)c3Cl)cn2)CC1`, the IC50 stood at 147 nM.
Take `CC1(N)CCN(c2cnc(Sc3cccc(NC(=O)c4cccc5ccccc45)c3Cl)cn2)CC1`: the IC50 was found to be 332 nM.
Same read-out and setting: with `C[C@@H]1OCC2(CCN(c3cnc(Sc4cccc(NC(=O)c5cnccc5O)c4Cl)cn3)CC2)[C@@H]1N` the figure was 0.17 nM.
As for `CC1(N)CCN(c2cnc(Sc3cccc(N)c3Cl)cn2)CC1`, the IC50 amounted to 36.2 nM.
Still for that read-out and setting: then `CC1(N)CCN(c2cnc(Sc3cccc(NC(=O)C4CCCCC4)c3Cl)cn2)CC1`, with 174 nM; and `CC1(N)CCN(c2cnc(Sc3cccc(NC(=O)Cc4ccccc4)c3Cl)cn2)CC1`, with 49.8 nM.
`CC1(N)CCN(c2cnc(Sc3cccc(NC(=O)c4ccco4)c3Cl)cn2)CC1`: the 50% inhibitory concentration (IC50) was 113 nM.
As for `C[C@@H]1OCC2(CCN(c3cnc(Sc4cccc(NC(=O)c5ncccc5Cl)c4Cl)cn3)CC2)[C@@H]1N`, the IC50 was found to be 1.03 nM.
Same read-out and setting: then `CC1(N)CCN(c2cnc(Sc3ccc(NC(=O)c4ccccc4)cc3Cl)cn2)CC1`, with 296 nM; and `CC1(N)CCN(c2cnc(Sc3cccc(NC(=O)c4ncccc4F)c3Cl)cn2)CC1`, with 32.3 nM; and `CC1(N)CCN(c2cnc(Sc3cccc(NC(=O)c4ncccc4Cl)c3Cl)cn2)CC1`, with 1.7 nM.
Take `CC1(N)CCN(c2cnc(Sc3cccc(NC(=O)c4ncccc4O)c3Cl)cn2)CC1`: the IC50 stood at 6.6 nM.
As for `CC1(N)CCN(c2cnc(Sc3cccc(NC(=O)c4ccccn4)c3Cl)cn2)CC1`, the IC50 was determined as 29.4 nM.
`N[C@@H]1c2ccccc2CC12CCN(c1cnc(Sc3cccc(NC(=O)c4ncccc4O)c3Cl)cn1)CC2`: the concentration for half-maximal inhibition (IC50) was determined as 0.6 nM.
Take `CC1(N)CCN(c2cnc(Sc3cccc(NC(=O)c4nccs4)c3Cl)cn2)CC1`: the half-maximal inhibitory concentration (IC50) is 51.9 nM.
As for `C[C@@H]1OCC2(CCN(c3cnc(Sc4cccc(NC(=O)c5cccnc5O)c4Cl)cn3)CC2)[C@@H]1N`, the IC50 was found to be 0.13 nM.
On to `CC1(N)CCN(c2cnc(Sc3cccc(NC(=O)c4cc(Cl)ccn4)c3Cl)cn2)CC1`, for which the IC50 is 219 nM.
Regarding `CC1(N)CCN(c2cnc(Sc3cccc(NC(=O)c4cnccc4Cl)c3Cl)cn2)CC1`, the IC50 was found to be 128 nM.
In the case of `CC1(N)CCN(c2cnc(Sc3cccc(NC(=O)c4ncccn4)c3Cl)cn2)CC1`, the IC50 came out at 30.1 nM.
For `CC1(N)CCN(c2cnc(Sc3cccc(NC(=O)c4ccccc4)c3Cl)cn2)CC1`, the IC50 amounted to 67.8 nM.
For the compound `CC1(N)CCN(c2cnc(Sc3cccc(NC(=O)c4cccc(Cl)n4)c3Cl)cn2)CC1`, the IC50 amounted to 175 nM.
For the compound `N[C@@H]1c2ccccc2CC12CCN(c1cnc(Sc3cccc(NC(=O)c4ncccc4Cl)c3Cl)cn1)CC2`, the concentration for half-maximal inhibition (IC50) worked out at 1.08 nM.
Still for that read-out and setting: with `N[C@@H]1c2ccccc2CC12CCN(c1cnc(Sc3cccc(NC(=O)c4cccnc4O)c3Cl)cn1)CC2` the figure was 1.87 nM; with `CC1(N)CCN(c2cnc(Sc3cccc(NC(=O)c4cccnc4Cl)c3Cl)cn2)CC1`, 365 nM; with `CC1(N)CCN(c2cnc(Sc3cccc(NC(=O)c4ccc(Cl)cn4)c3Cl)cn2)CC1`, 218 nM.

A further assay addresses T2, Tyrosine-protein phosphatase non-receptor type 11 (Homo sapiens) (UniProt Q06124).
T2 sequence (whole entry): T1 sequence (Q06124 whole entry)
As to the kind of experiment: Allosteric inhibition of N-terminal His-tagged human recombinant SHP2 extracted from Escherichia coli using DiFMUP as substrate at 10 uM preincubated with compound for 60 mins followed by substrate addition and measured after 30 mins by fluorescence based microplate reader analysis relative to control. As to conditions: time 90.0 min.
In the case of `NCC(=O)N1CCN(c2cnc(Sc3ccnc(N)c3Cl)c(N)n2)CC1`, the inhibition was found to be 58.8%.
For the compound `C[C@@H](N)C(=O)N1CCN(c2cnc(Sc3ccnc(N)c3Cl)c(N)n2)CC1`, the inhibition stood at 43.8%.
Turning to `Nc1nc(N2CCN(C(=O)C3(N)CCCC3)CC2)cnc1Sc1ccnc(N)c1Cl`, the inhibition is 95.2%.
Regarding `Nc1nc(N2CCN(C(=O)[C@H]3CCCN3)CC2)cnc1Sc1ccnc(N)c1Cl`, the inhibition is 50.2%.
The same measure, in the same setting: then `Nc1nc(N2CCN(C(=O)C3(N)CCCCC3)CC2)cnc1Sc1ccnc(N)c1Cl`, with 14.3%; and `Nc1nc(N2CCN(C(=O)C3(N)CCC3)CC2)cnc1Sc1ccnc(N)c1Cl`, with 44.2%.
Turning to `C[C@H](N)C(=O)N1CCN(c2cnc(Sc3ccnc(N)c3Cl)c(N)n2)CC1`, the inhibition turned out to be 13.2%.
As for `Nc1nc(N2CCN(C(=O)[C@@H]3CCCN3)CC2)cnc1Sc1ccnc(N)c1Cl`, the inhibition stood at 48.8%.

The next assay concerns MV4-11. Description: Antiproliferative activity against human MV4-11 cells assessed as inhibition of cell proliferation incubated for 72 hrs by CCK-8 assay. The assay is classed as functional, cell-based. The following applies: Homo sapiens, MV4-11, 72 h.
As for `C[C@@H]1OCC2(CCN(c3cnc(Sc4cccc(NC(=O)c5cnccc5O)c4Cl)cn3)CC2)[C@@H]1N`, the IC50 is 16.6 nM.
In the case of `C[C@@H]1OCC2(CCN(c3cnc(Sc4cccc(NC(=O)c5cccnc5O)c4Cl)cn3)CC2)[C@@H]1N`, the IC50 worked out at 45.5 nM.
